pEC50, pIC50: −log10 of the molar value. Like-named read-outs stand apart in the source and are kept apart here.
Test system: cancer cell lines from the cancer cell line encyclopedia (CCLE)
Experiment: Cell line profiling (CLiP) proliferation experiment
Format: cell-based
Details: Homo sapiens; for pEC50: read-out: Inflection Point; for pIC50: read-out: Crossing Point
Experimental: Compound profiling experiment and data analysis was performed as previously described. Data was imported and plotted using the Tibco Spotfire DXP application. Lines were categorized as sensitive, intermediate and refractory as follows: Amax<-40 & Inflection Point <2 ~ Sensitive, Amax>-20 & Inflection Point >10 ~ Refractory, all else were called Intermediate. Cancer Cell line HG-U133 Plus 2 data was processed and normalized as described. […] Five sets of refractory cell lines were generated from the pool of refractory cell lines trying to match the lineage composition of the set of sensitive cell lines. The limma package was used as previously described to perform the statistical comparison.

[1] = KYSE-150, KYSE-150 (oesophagus)
[2] = L-363, L-363 (haematopoietic_and_lymphoid_tissue)
[3] = LN-18, LN-18 (central_nervous_system)
[4] = LN-229, LN-229 (central_nervous_system)
[5] = LS180, LS 180 (large_intestine)
[6] = LS-411N, LS411N (large_intestine)
[7] = MC116, MC116 (haematopoietic_and_lymphoid_tissue)
[8] = MIA PaCa-2, MIA PaCa-2 (pancreas)

CC(C)[C@@]12C[C@@H](O)[C@@](C)(O1)[C@@H]1CC[C@@H](C)[C@H]1[C@@H]2OC(=O)/C=C/c1ccccc1 [Englerin B]
pEC50 (KARPAS-299, KARPAS-299): 4.90
pIC50 (KARPAS-422, KARPAS-422): 4.94
pEC50 (KARPAS-422, KARPAS-422): 4.94
pIC50 (KARPAS-422, KARPAS-422 cells): 4.94
pEC50 (KARPAS-422, KARPAS-422 cells): 4.94
pEC50 (KATO III, cell line KATO III): 4.73
pIC50 (KATO III): 4.71
pEC50 (KATO III): 4.73
pIC50 (KCL-22, KCL-22): 4.87
pEC50 (KCL-22, KCL-22): 4.89
pIC50 (KCL-22, KCL-22 cells): 4.87
pEC50 (KCL-22, KCL-22 cells): 4.89
pIC50 (KLE): < 4.52
pEC50 (KLE): 4.95
pIC50 (KM12, KM12): < 4.52
pIC50 (KM12, KM12 cells): < 4.52
pIC50 (KMS-11, KMS-11): 4.87
pEC50 (KMS-11, KMS-11): 4.88
pEC50 (KMS-11, KMS-11 cells): 4.88
pIC50 (KMS-12-BM, KMS-12-BM cells): 4.60
pEC50 (KMS-12-BM, KMS-12-BM cells): 4.60
pIC50 (KMS-12-BM): 4.60
pEC50 (KMS-12-BM): 4.60
pIC50 (KNS-62, KNS-62): < 4.52
pIC50 (KNS-62, KNS-62 cells): < 4.52
pIC50 (KU812, KU812): 5.06
pEC50 (KU812, KU812): 4.88
pEC50 (KU812, KU812 cells): 4.88
pIC50 (KYSE-30, KYSE-30 (oesophagus)): < 4.52
pIC50 (KYSE-70, KYSE-70 (oesophagus)): 4.55
pIC50 [1]: < 4.52
pEC50 [1]: 4.92
pIC50 (KYSE-270, KYSE-270 (oesophagus)): < 4.52
pIC50 (KYSE-270, cell line KYSE-270): < 4.52
pIC50 (KYSE-410, KYSE-410 (oesophagus)): 4.66
pIC50 (KYSE-450, KYSE-450 (oesophagus)): < 4.52
pIC50 (KYSE-450, KYSE-450 cells): < 4.52
pIC50 (KYSE-510, KYSE-510 (oesophagus)): < 4.52
pIC50 (KYSE-520, KYSE-520 (oesophagus)): 4.64
pIC50 [2]: 4.73
pEC50 [2]: 4.56
pIC50 (LAMA-84, LAMA-84 (haematopoietic_and_lymphoid_tissue)): < 4.52
pIC50 (LAMA-84, LAMA-84 cells): < 4.52
pIC50 (LCLC-97TM1, LCLC-97TM1 (lung)): < 4.52
pIC50 (LCLC-97TM1, LCLC-97TM1 cells): < 4.52
pIC50 (LCLC-103H, LCLC-103H (lung)): < 4.52
pIC50 (LCLC-103H, LCLC-103H cells): < 4.52
pIC50 [3]: 4.86
pEC50 [3]: 4.88
pEC50 (LN-18, LN-18 cells): 4.88
pIC50 [4]: < 4.52
pEC50 [4]: 4.66
pIC50 (LOX IMVI, LOX IMVI (skin)): < 4.52
pIC50 (LOX IMVI, LOX IMVI cells): < 4.52
pIC50 (LP-1, LP-1 cells): 4.73
pEC50 (LP-1, LP-1 cells): 4.73
pIC50 [5]: < 4.52
pEC50 [5]: 5.01
pIC50 (LS180, LS 180 cells): < 4.52
pEC50 (LS180, LS 180 cells): 5.01
pIC50 [6]: 4.79
pEC50 [6]: 4.79
pIC50 (LXF-289, LXF-289 (lung)): < 4.52
pIC50 (LoVo, LoVo (large_intestine)): < 4.52
pEC50 (LoVo, LoVo (large_intestine)): 4.90
pIC50 (Lu-65, LU65 (lung)): < 4.52
pIC50 (Lu-99, LU99 (lung)): 4.57
pEC50 (Lu-99, LU99 (lung)): 4.89
pIC50 [7]: 4.85
pEC50 [7]: 4.85
pIC50 (MCF7, MCF7 (breast)): 4.86
pEC50 (MCF7, MCF7 (breast)): 4.97
pIC50 (MCF7, MCF7 cells): 4.86
pEC50 (MCF7, MCF7 cells): 4.97
pIC50 (MDA-MB-175-VII, MDA-MB-175-VII (breast)): < 4.52
pIC50 (MDA-MB-231, MDA-MB-231 (breast)): < 4.52
pIC50 (MDA-MB-231, cell line MDA-MB-231 (breast, NS)): < 4.52
pIC50 (MDA-MB-415, MDA-MB-415 (breast)): < 4.52
pIC50 (MDA-MB-436, MDA-MB-436 (breast)): < 4.52
pIC50 (MDA-MB-453, MDA-MB-453 (breast)): 4.74
pIC50 (MDA-MB-468, MDA-MB-468 (breast)): < 4.52
pIC50 (MDA-MB-468, MDA-MB-468 cells): < 4.52
pIC50 (MEC1, MEC-1 (haematopoietic_and_lymphoid_tissue)): 4.65
pIC50 (MEG-01, MEG-01 (haematopoietic_and_lymphoid_tissue)): 4.54
pIC50 (MEL-JUSO, MEL-JUSO (skin)): < 4.52
pIC50 (MEL-JUSO, cell line MEL-JUSO (skin)): < 4.52
pIC50 (MFE-296, cell line MFE-296 (endometrium)): 4.64
pIC50 (MG-63, cell line MG-63 (bone)): < 4.52
pIC50 (MG-63, cell line MG-63): < 4.52
pIC50 [8]: < 4.52
pEC50 [8]: 4.95
pIC50 (MIA PaCa-2, cell line MIA PaCa-2 (pancreas)): < 4.52

— article PMC4476799, “Englerin A Agonizes the TRPC4/C5 Cation Channels to Inhibit Tumor Cell Line Proliferation” (PLoS ONE, 2015)
